Data published in patent US8101170B2, “Probiotic health or fitness promoting human or animal foodstuff and/or drinking water additive and use thereof” (Erber Aktiengesellschaft, priority 2005, dated 2012).
Where “and” joins values, the source holds several entries; their conditions need not be identical. Identical values can stand only once. Like-named read-outs stand apart in the source and are kept apart here.

Legend:
Type in all cases: cell-based
Salmonella choleraesuis = test: Agar plate assay, inhibition of pathogenic germs by CE test germs
Clostridium perfringens = test system: Clostridium perfringens
Campylobacter jejuni = test: Agar plate assay, inhibition of pathogenic germs by CE test germs
E. coli = test: as above

| Substance | inhibition zone to test germ ratio, Salmonella choleraesuis (Salmonella choleraesuis; MRS agar) | inhibition zone to test germ ratio, Clostridium perfringens (Clostridium perfringens) | inhibition zone to test germ ratio, Campylobacter jejuni (Campylobacter jejuni; MRS agar) | inhibition zone to test germ ratio, E. coli (E. coli) | inhibition zone to test germ ratio, Salmonella choleraesuis (Salmonella choleraesuis) | inhibition zone to test germ ratio, Campylobacter jejuni (Campylobacter jejuni) |
| --- | --- | --- | --- | --- | --- | --- |
| Lactobacillus salivarius [DSM 20555] | 1.09 | 1.63 | 1.41 | – | – | – |
| Bifidobacterium animalis [DSM 20104] | 0.65 | 1.42 | 0.31 | – | – | – |
| Pediococcus acidilactici [DSM 20284] | 1.10 | 1.35 | 1.32 | – | – | – |
| Enterococcus faecium [DSM 16211] | 1.37 | 1.43 | 1.28 | – | – | – |
| Lactobacillus salivarius ssp. salivarius [DSM 16351] | 1.46 | 2.05 | 1.50 | – | – | – |
| Lactobacillus reuteri [DSM 20016] | 1.20 | 1.54 | 1.35 | – | – | – |
| Lactobacillus reuteri [DSM 16350] | 1.60 | 2.12 | 1.36 | – | – | – |
| Enterococcus faecium [NCIMB 10415] | – | 1.31 | – | 1.37 and 1.35 | 1.20 | 1.22 |
